US20060142251A1, “Anti-microbial agents derived from methionine sulfoximine analogues” (priority 2002, published 2006)
Where “and” joins values, the source holds several entries; their conditions need not be identical. Equal entries are not always repeated. Where two headings read alike, the source gives them in different places.

Assays:
[1] = Text: Exemplary, non-limiting GS inhibitors of the present invention and their relevant properties are summarized below: [drawing 1]
M. tuberculosis Erdman = assay: M. tuberculosis growth in broth culture; type: cell-based; settings: for inhibition of M. tuberculosis growth in broth culture in comparison with MSO / inhibition of M. tuberculosis in broth culture relative to MSO at each of the three concentrations: 10, 100, 1000 μM; for inhibition of M. tuberculosis growth in broth culture in comparison with MSO: 6 weeks (FIG. 4); for inhibition of M. tuberculosis in broth culture relative to MSO at each of the three concentrations / inhibition of M. tuberculosis growth in broth culture: Example 7; for inhibition of M. tuberculosis growth in broth culture: 10, 100 or 1000 μM, 6 weeks
[2] = tested on: M. tuberculosis Erdman in human macrophages (THP-1 cells); settings: 20, 200, 2000 μM, CFU to day 5 (FIG. 5)
[3] = cited from earlier work; for metabolism: do not form the toxic products formed in vivo from MSO
[4] = α-Et-MSO: convulsions in a minority of mice vs MSO dose giving 100% of mice; cited from earlier work
[5] = in vivo; cited from earlier work
[6] = doses that fully inhibit glutathione synthesis; cited from earlier work
[7] = tested on: M. tuberculosis Erdman strain; type: in vivo; settings: for reduction of CFU in lung and spleen below the level obtained with MSO: from day 14
Remark: listed apart in the source

Compound	Estimated Dose of L Isomer that Induces Convulsions in Mice (Relative to MSO) ([1]; Table 1)	Estimated Dose of L Isomer that Induces Convulsions in Mice (Relative to MSO) ([1]; Table 3)	inhibition of M. tuberculosis growth in broth culture in comparison with MSO (M. tuberculosis Erdman)	inhibition of M. tuberculosis in broth culture relative to MSO at each of the three concentrations (M. tuberculosis Erdman)	inhibition of M. tuberculosis growth in broth culture (M. tuberculosis Erdman)	inhibition of M. tuberculosis growth in human macrophages [2]	metabolism [3]	Metabolized In Vivo [3]	dose that causes convulsions in mice, higher than MSO [4]	entry into the brain compared with MSO [5]	other results
CCC(N)(CCS(C)(=N)=O)C(=O)O (racemic) [α-Et-MSO, α-ethyl-DL-methionine-SR-sulfoximine]	>16	≧16	as inhibitory to M. tuberculosis growth as MSO	as inhibitory or slightly more inhibitory than MSO	inhibited M. tuberculosis	readily inhibited M. tuberculosis growth in human macrophages	resistant to metabolism	−	16 fold	do not enter the brain as readily as MSO	
CC(N)(CCS(C)(=N)=O)C(=O)O (racemic) [α-Me-MSO, α-methyl-DL-methionine-SR-sulfoximine]	8	8	as inhibitory to M. tuberculosis growth as MSO	slightly less inhibitory than MSO	inhibited M. tuberculosis	readily inhibited M. tuberculosis growth in human macrophages	resistant to metabolism	−	~8 fold	do not enter the brain as readily as MSO	
CCCCS(=N)(=O)CCC(N)C(=O)O [BSO, D, L-Buthionine-SR-Sulfoximine]					did not						animals killed [6]: 100%
NNC(=O)c1ccncc1 [INH, isoniazid]											reduction of CFU in lung and spleen below the level obtained with MSO ([7]; INH 1 mg kg^−1 day^−1 oral): ~1.5 logs; reduction of CFU in lung and spleen below the level obtained with MSO ([7]; INH 4 mg kg^−1 day^−1 oral): ~2.5 logs; protection from weight loss ([7]; […], MSO 1.5, INH 1 or 4 mg kg^−1 day^−1): protected animals from weight loss
CS(=N)(=O)CC[C@H](N)C(=O)O (stereo partly drawn) [MSO, L-methionine-SR-sulfoximine]	1	1			inhibited M. tuberculosis						fewer CFU of M. tuberculosis in lung and spleen than control animals ([7]; in vivo): approximately 1 log unit; protection from weight loss ([7]; in vivo): protected animals from weight loss; reduction of CFU of M. tuberculosis in lungs and spleen compared with control animals ([7]; in vivo): ~0.7 logs; reduction of bacterial counts in lung and spleen ([7]; in vivo): effective at reducing bacterial counts; survival of the 10 week observation period ([7]; in vivo): 100% and 80% and 60%; weight gain versus untreated controls ([7]; in vivo): gained significantly more weight than untreated controls; weight loss versus untreated controls ([7]; in vivo): protected from weight loss; reduction of CFU in lungs and spleen compared with untreated controls ([7]; in vivo, ip): 2.5 logs; MTD in the presence of ascorbate relative to absence of ascorbate (guinea pig, in vivo): 4 fold; maximum tolerated dose for guinea pigs infected with M. tuberculosis (guinea pig, in vivo): 1.5 mg kg^−1 day^−; tolerability (guinea pig, in vivo): well-tolerated
O=C1O[C@H]([C@@H](O)CO)C(O)=C1O [ascorbate]											total dose well tolerated by guinea pigs (i.p., 9 mmoles kg^−1 day^−1 not well tolerated): 3 mmol/kg/day
